EC50 data for two molecules are collected here from ChEMBL document CHEMBL5030519, “A "Two-Birds-One-Stone" Approach toward the Design of Bifunctional Human Immunodeficiency Virus Type 1 Entry Inhibitors Targeting the CCR5 Coreceptor and gp41 N-Terminal Heptad Repeat Region” (J Med Chem, 2021).

As usually defined, the EC50 is the concentration giving half of the maximal effect. High values mean lower potency in that assay, low ones higher potency in that assay.

Assay [1] has as its system Human immunodeficiency virus 1. It is filed as functional, organism-based. The settings on record: Human immunodeficiency virus 1, BaL (subtype B, R5), CEMx174 5.25M7, 144 h.
In assay [2] the test system is Human immunodeficiency virus 1. It is filed as functional, organism-based, D36G. The settings on record: cemx174 5.25m7.
Assay [3] concerns Human immunodeficiency virus 1. Type of assay: functional, organism-based, V38E/N42S. The settings on record: cemx174 5.25m7.
The test system of assay [4] is Human immunodeficiency virus 1. Type of assay: functional, organism-based, N427/N43K. The note with it: cemx174 5.25m7.
Assay [5] relates to Human immunodeficiency virus 1. Type of assay: functional, organism-based, V38A/N427. The settings on record: cemx174 5.25m7.

Residues, ends and D or L forms follow the SMILES beside them. Groups on a side chain read outwards from the residue. *: point of attachment. X1 = CC(=O)N1CCC(C(=O)N(CCCN2CCC(Cc3ccc(C(=O)*)cc3)CC2)c2ccc(C)c(Cl)c2)CC1; PEG12 = NCCOCCOCCOCCOCCOCCOCCOCCOCCOCCOCCOCCOCCC(=O)O Where only a bound is given, the exact number is not on record here.

For the molecule enfuvirtide, the EC50 is 0.00158 µM in assay [1]; 0.00431 µM in assay [2]; 0.261 µM in assay [3]; 0.673 µM in assay [4]; 0.656 µM in assay [5].

For the molecule `CC[C@H](C)[C@H](NC(=O)[C@H](CC(C)C)NC(=O)[C@H](CO)NC(=O)[C@H](Cc1cnc[nH]1)NC(=O)[C@@H](NC(=O)[C@H](CC(C)C)NC(=O)[C@H](CO)NC(=O)[C@@H](NC(=O)[C@H](Cc1ccc(O)cc1)NC(=O)[C@H](CC(N)=O)NC(=O)[C@H](CC(N)=O)NC(C)=O)[C@@H](C)O)[C@@H](C)CC)C(=O)N[C@@H](CCC(=O)O)C(=O)N[C@@H](CCC(=O)O)C(=O)N[C@@H](CO)C(=O)N[C@@H](CCC(N)=O)C(=O)N[C@@H](CC(N)=O)C(=O)N[C@@H](CCC(N)=O)C(=O)N[C@@H](CCC(N)=O)C(=O)N[C@@H](CCC(=O)O)C(=O)N[C@@H](CCCCN)C(=O)N[C@@H](CC(N)=O)C(=O)N[C@@H](CCC(=O)O)C(=O)N[C@@H](CCC(N)=O)C(=O)N[C@@H](CCC(=O)O)C(=O)N[C@@H](CC(C)C)C(=O)N[C@@H](CC(C)C)C(=O)N[C@@H](CCCCNC(=O)CCOCCOCCOCCOCCOCCOCCOCCOCCOCCOCCOCCOCCNC(=O)c1ccc(CC2CCN(CCCN(C(=O)C3CCN(C(C)=O)CC3)c3ccc(C)c(Cl)c3)CC2)cc1)C(N)=O` (Ac-NNYTSLIHSLIEESQNQQEKNEQELLK([PEG12-X1])-NH2), the EC50 in assay [1] was over 0.05 µM.
